We go through twelve compounds from PubChem BioAssay (NCI).

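Exposure lasted 48 hours, with cells grown in 96-well plates and compounds tested at five concentrations. Here, GI50 denotes the concentration required for 50% inhibition of growth. TGI is the concentration that stops growth completely.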

Test systems include SF-268 CNS; NCI-H460 lung; TK-10 renal; EKVX NSCLC; SNB-78 CNS; SN12C renal; KM20L2 colon; LOX IMVI melanoma; SK-MEL-5 melanoma; BT-549 breast.
Common to all, as to assay: NCI tumour cell line growth inhibition, 48 h

For `CC1=CC(N2C(=O)C(C)=CC2O)NC1=O` (stereo not drawn), the TGI with SF-268 CNS, in the assay with NCI-H460 lung, in the assay with TK-10 renal, in the assay on EKVX NSCLC, in the assay with SNB-78 CNS and in the assay on SN12C renal was over 100 µM in each case. Also, the TGI with KM20L2 colon and with LOX IMVI melanoma was over 100 µM throughout.

For `N/N=c1\c2ccccc2c2cc3c(cc12)/c(=N/N)c1ccccc13`, the TGI in the assay on SF-268 CNS, with NCI-H460 lung, in the assay on EKVX NSCLC, with SNB-78 CNS, in the assay on SN12C renal and in the assay with KM20L2 colon was over 100 µM throughout. The TGI with SK-MEL-5 melanoma is over 100 µM.

In the case of `Cc1ccc(NC(=O)/C(Cl)=C(/Cl)C(=O)O)cc1`, the TGI with SF-268 CNS is 42 µM; with NCI-H460 lung, over 100 µM; in the assay with TK-10 renal, 33 µM; with EKVX NSCLC, 31.2 µM; in the assay on SNB-78 CNS, 53.4 µM; with SN12C renal, 32.5 µM. The TGI with KM20L2 colon was 40.3 µM; in the assay with SK-MEL-5 melanoma, 55.2 µM; with LOX IMVI melanoma it was 30.9 µM.

For the compound `Cc1ccccc1-n1c2nc(=O)n(C)c(=O)c-2nc2ccccc21`, the TGI in the assay with SF-268 CNS was found to be 32.1 µM; in the assay on NCI-H460 lung, 27.3 µM; in the assay on TK-10 renal it was 35.2 µM; in the assay on EKVX NSCLC it was 24.3 µM; in the assay on SNB-78 CNS, 43.1 µM; in the assay with SN12C renal it was 26.6 µM. Besides, the TGI worked out at 21.9 µM with KM20L2 colon, 23.1 µM in the assay on SK-MEL-5 melanoma and 39.7 µM in the assay on LOX IMVI melanoma.

For the compound `NCCNCc1c2ccccc2c(CNCCN)c2ccccc12`, the TGI with SF-268 CNS was 27.4 µM; with NCI-H460 lung it was 27 µM; with TK-10 renal, over 100 µM; with EKVX NSCLC, 50.1 µM; with SNB-78 CNS, 82.1 µM; in the assay on SN12C renal it was 58.9 µM. The TGI in the assay with KM20L2 colon was 74.1 µM; in the assay on SK-MEL-5 melanoma, 90.3 µM.

Take `COc1ccc2nc3cc(Cl)ccc3c(Sc3ccc([N+](=O)[O-])cc3)c2c1`: the GI50 with SF-268 CNS, with NCI-H460 lung, in the assay with TK-10 renal, with EKVX NSCLC, with SN12C renal and in the assay on KM20L2 colon was over 100 µM throughout. The GI50 in the assay on SK-MEL-5 melanoma and in the assay on LOX IMVI melanoma was over 100 µM throughout. The TGI was over 100 µM in the assay with SF-268 CNS; over 100 µM in the assay on NCI-H460 lung; over 100 µM in the assay with TK-10 renal; over 100 µM in the assay on EKVX NSCLC; over 10 µM in the assay on SNB-78 CNS; over 100 µM with SN12C renal. Besides, the TGI in the assay with KM20L2 colon, in the assay on SK-MEL-5 melanoma and in the assay on LOX IMVI melanoma was over 100 µM in each case.

Take `CC(=O)NC1C(OCc2ccccc2)OC(COC(=O)CCCCCCCCCCNc2ccc([N+](=O)[O-])c3[nH]c4ccccc4c(=O)c23)C(O)C1OC(C)C(=O)NC(C)C(=O)NC(CCC(N)=O)C(=O)OCc1ccccc1` (stereo not drawn): the TGI with SF-268 CNS, in the assay with NCI-H460 lung, with TK-10 renal, with EKVX NSCLC, with SNB-78 CNS and in the assay on SN12C renal was over 100 µM throughout. Moreover, the TGI in the assay with KM20L2 colon, in the assay with SK-MEL-5 melanoma and in the assay on LOX IMVI melanoma was over 100 µM in each case.

On to `COC(=O)C1=C(C(=O)OC)C2(C)Nc3ccccc3C2=C(c2ccccc2)C1` (stereo not drawn), for which the TGI with SF-268 CNS is 66.5 µM; in the assay with NCI-H460 lung it was 42.9 µM; in the assay with TK-10 renal, 69.9 µM; with EKVX NSCLC, 70.5 µM; in the assay on SNB-78 CNS, 46.9 µM; in the assay on SN12C renal, 57.7 µM. In addition, the TGI is 74.3 µM in the assay with KM20L2 colon, 29.9 µM with SK-MEL-5 melanoma and 55.7 µM in the assay with LOX IMVI melanoma.

As for `c1ccc2c(c1)N=C(c1cccc3ccccc13)CC(c1ccc3c(c1)OCO3)S2` (stereo not drawn), the TGI with SF-268 CNS, in the assay with NCI-H460 lung, in the assay on TK-10 renal, with EKVX NSCLC, with SNB-78 CNS and in the assay on SN12C renal was over 100 µM each time. The TGI with KM20L2 colon, with SK-MEL-5 melanoma and in the assay with LOX IMVI melanoma was over 100 µM throughout.

On to `CC(C)NC(=O)CCN(C(=O)O)S(=O)(=O)c1ccc(NC(=O)c2ccccc2)cc1`, for which the TGI is over 100 µM in the assay with SF-268 CNS; over 59.7 µM in the assay on NCI-H460 lung; over 100 µM with TK-10 renal; over 100 µM in the assay on EKVX NSCLC; over 100 µM in the assay on SNB-78 CNS; over 100 µM in the assay with SN12C renal. Further, the TGI with KM20L2 colon was over 100 µM; with SK-MEL-5 melanoma it was over 100 µM; with LOX IMVI melanoma, over 61.7 µM.

For the compound `CC(=O)OC12COC1CC(O)C1(C)C(=O)C(O)C3=C(C)C(O)CC(O)(C(OC(=O)c4ccccc4)C21)C3(C)C` (stereo not drawn), the TGI with SF-268 CNS, in the assay with NCI-H460 lung, in the assay with BT-549 breast, in the assay on TK-10 renal, in the assay with EKVX NSCLC and with SNB-78 CNS was over 100 µM throughout. Moreover, the TGI was over 100 µM with SN12C renal, 5.42 µM with KM20L2 colon, 29.5 µM in the assay on SK-MEL-5 melanoma and over 100 µM in the assay on LOX IMVI melanoma.

Turning to `CN1CCN(C)C12C=CC=CC21CC1`, the TGI with SF-268 CNS, in the assay with NCI-H460 lung, in the assay on TK-10 renal, in the assay on EKVX NSCLC, with SNB-78 CNS and with SN12C renal was over 100 µM throughout. Also, the TGI with KM20L2 colon, in the assay on SK-MEL-5 melanoma and in the assay on LOX IMVI melanoma was over 100 µM in each case.
